Active and inactive are the calls of the source.
Assays:
[1] = inhibitors of firefly luciferase expression or activity, dose response, H4 neuroglioma cells, luminescence (AID 1990); assay type: functional, cell-based
[2] = Luminescence Cell-Based Dose Response HTS to Identify Inhibitors of 5'UTR Stem-Loop Driven Prion Protein mRNA Translation in H4 Neuroglioblastoma Cells. [Related pubchem assays: 1827 (Project Summary), 1813 (Primary HTS)]; assay type: functional
[3] = inhibitors of SNCA 5'UTR-driven reporter translation, confirmation, H4 neuroglioma cells, luminescence (AID 1988); assay type: functional, cell-based
Hexokinase HKDC1 = target: T1, Hexokinase HKDC1 (Homo sapiens, UniProt Q2TB90); assay: HKDC1 hexokinase activators, dose response, biochemical, W721R variant (AID 504730); assay type: functional
T1 sequence (Q2TB90 whole entry): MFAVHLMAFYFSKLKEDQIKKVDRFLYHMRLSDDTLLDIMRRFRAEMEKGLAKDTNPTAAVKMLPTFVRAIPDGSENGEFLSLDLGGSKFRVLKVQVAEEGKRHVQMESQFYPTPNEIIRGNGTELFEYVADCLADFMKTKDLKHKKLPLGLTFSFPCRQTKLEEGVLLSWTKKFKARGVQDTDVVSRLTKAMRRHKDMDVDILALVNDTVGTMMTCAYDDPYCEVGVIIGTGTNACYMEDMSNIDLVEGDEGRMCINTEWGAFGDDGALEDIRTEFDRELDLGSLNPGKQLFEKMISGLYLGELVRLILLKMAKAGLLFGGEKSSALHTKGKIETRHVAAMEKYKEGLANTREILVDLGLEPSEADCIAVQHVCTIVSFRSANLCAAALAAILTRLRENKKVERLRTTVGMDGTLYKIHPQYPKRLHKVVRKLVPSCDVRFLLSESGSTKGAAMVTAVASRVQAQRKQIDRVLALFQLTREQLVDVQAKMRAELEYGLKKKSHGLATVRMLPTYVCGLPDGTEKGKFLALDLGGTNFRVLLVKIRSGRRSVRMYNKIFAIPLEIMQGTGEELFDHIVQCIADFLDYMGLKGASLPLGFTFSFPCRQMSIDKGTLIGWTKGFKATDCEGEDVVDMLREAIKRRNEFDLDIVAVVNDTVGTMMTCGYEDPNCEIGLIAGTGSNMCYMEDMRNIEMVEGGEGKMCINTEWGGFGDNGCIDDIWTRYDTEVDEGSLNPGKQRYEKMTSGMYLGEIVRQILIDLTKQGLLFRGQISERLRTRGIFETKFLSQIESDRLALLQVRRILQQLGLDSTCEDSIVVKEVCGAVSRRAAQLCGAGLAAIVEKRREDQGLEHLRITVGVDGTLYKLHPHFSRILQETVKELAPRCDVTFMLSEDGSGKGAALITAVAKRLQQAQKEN

Hexokinase-1 = target: T2, Hexokinase-1 (Homo sapiens, UniProt P19367); assay: hexokinase 1 activators, dose response, selectivity assay for HKDC1 activator project, biochemical (AID 504762); assay type: functional
T2 sequence (P19367 whole entry): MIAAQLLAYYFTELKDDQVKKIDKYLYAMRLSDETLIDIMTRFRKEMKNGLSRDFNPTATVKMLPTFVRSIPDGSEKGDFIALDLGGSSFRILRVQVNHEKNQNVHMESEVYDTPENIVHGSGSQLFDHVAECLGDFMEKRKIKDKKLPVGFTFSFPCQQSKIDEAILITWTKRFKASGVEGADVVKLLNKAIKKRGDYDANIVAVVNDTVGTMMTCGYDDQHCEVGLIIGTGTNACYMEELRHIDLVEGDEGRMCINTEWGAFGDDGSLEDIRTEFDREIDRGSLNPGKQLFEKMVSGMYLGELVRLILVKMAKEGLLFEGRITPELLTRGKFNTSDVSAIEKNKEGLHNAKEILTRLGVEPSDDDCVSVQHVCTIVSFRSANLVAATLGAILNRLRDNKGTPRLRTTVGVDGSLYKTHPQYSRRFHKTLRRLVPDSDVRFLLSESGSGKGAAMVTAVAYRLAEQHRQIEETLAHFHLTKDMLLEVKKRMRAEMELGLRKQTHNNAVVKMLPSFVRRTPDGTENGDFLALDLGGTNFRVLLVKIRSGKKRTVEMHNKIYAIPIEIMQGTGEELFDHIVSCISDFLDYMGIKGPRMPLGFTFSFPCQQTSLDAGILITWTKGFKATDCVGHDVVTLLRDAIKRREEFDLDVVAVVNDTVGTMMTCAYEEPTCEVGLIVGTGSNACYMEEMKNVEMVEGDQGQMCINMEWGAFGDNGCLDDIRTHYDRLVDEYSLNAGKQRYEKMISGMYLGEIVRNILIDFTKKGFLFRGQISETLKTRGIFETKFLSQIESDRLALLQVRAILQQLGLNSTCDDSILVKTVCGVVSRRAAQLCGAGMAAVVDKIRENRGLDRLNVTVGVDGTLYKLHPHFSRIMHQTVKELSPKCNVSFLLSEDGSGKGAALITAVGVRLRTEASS

[4] = Luminescence Cell-Based Dose Retest to Confirm Inhibitors of Cancer Stem Cells. [Related pubchem assays (depositor defined):AID2717, AID2721]; assay type: functional; settings: Homo sapiens
[5] = Intein inhibitors as potential Tuberculosis drugs, a cytotoxicity screen. [Related pubchem assays (depositor defined):AID2221, AID2223, AID434968, AID435010, AID449749, AID449750, AID489010]; assay type: functional
[6] = target: T3, Replicative DNA helicase DnaB (Mycobacterium tuberculosis, UniProt P9WMR3); assay: DnaB intein splicing inhibitors, dose response, biochemical, cell-free fluorescence (AID 449749); assay type: functional
T3 sequence (P9WMR3 whole entry): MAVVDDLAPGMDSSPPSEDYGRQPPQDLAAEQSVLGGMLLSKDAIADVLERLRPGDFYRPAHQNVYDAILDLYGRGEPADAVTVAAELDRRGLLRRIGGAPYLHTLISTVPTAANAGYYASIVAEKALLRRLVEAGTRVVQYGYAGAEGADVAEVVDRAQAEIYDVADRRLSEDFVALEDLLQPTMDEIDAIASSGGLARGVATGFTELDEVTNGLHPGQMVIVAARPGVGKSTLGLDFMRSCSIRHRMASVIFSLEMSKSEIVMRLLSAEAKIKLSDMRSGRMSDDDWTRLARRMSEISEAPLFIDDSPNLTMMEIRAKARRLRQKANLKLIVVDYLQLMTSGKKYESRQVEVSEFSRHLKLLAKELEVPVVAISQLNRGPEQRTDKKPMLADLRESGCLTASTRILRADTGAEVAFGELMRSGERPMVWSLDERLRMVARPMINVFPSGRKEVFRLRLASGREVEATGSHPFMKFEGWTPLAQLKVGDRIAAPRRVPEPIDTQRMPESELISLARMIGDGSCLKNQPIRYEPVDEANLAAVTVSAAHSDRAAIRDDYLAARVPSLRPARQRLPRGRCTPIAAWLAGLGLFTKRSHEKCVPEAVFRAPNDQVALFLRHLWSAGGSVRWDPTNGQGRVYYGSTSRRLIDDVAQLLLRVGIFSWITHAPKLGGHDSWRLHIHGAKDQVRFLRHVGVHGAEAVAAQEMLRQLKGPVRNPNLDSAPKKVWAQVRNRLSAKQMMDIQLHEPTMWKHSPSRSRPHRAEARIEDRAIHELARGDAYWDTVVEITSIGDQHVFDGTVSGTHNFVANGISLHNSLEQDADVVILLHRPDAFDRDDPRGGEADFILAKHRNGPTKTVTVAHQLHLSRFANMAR

Protein RecA = target: T4, Protein RecA (Mycobacterium tuberculosis, UniProt P9WHJ3); assay: Fluorescence Cell-Free Homogeneous Dose Retest to Identify Inhibitors of RecA-Intein Splicing Activity. [Related pubchem assays (depositor defined):AID2097, AID2223, AID489010, AID492950]; assay type: functional
T4 sequence (P9WHJ3 whole entry): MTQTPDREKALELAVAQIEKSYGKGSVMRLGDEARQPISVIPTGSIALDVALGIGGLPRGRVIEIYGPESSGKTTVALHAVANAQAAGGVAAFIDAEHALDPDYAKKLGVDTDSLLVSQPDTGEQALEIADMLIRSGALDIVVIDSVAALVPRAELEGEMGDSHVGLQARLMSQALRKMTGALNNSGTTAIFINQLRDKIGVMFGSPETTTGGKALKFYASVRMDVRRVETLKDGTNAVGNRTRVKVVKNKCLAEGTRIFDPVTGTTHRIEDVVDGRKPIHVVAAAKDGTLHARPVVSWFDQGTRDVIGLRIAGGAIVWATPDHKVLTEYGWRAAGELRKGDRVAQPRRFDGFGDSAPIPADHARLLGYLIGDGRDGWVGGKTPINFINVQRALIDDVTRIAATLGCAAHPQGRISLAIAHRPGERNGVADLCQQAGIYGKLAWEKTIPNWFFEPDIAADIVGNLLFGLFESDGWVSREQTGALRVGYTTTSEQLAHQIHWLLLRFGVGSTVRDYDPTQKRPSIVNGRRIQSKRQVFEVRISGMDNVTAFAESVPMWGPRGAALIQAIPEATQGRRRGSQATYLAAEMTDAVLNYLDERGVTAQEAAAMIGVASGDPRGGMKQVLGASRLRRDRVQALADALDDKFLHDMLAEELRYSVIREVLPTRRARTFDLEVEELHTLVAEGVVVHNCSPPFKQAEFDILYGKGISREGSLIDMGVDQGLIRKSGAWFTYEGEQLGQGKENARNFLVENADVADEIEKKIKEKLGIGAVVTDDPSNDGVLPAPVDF

Cytochrome P450 2D6 = Cytochrome P450 2D6 (Homo sapiens, UniProt P10635);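 note: CYP2D6 member of a cytochrome P450 panel assay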
Mu-type opioid receptor = Mu-type opioid receptor (Homo sapiens, UniProt P35372); assay: SAR Analysis of Antagonists of the MOR Receptor using an Image-Based Assay - Set 3. [Related pubchem assays (depositor defined):AID1777, AID1785, AID1786, AID1966, AID2133, AID2136, AID2284, AID2285, AID2420]; assay type: functional
[7] = target: Delta-type opioid receptor (Homo sapiens, UniProt P41143); assay: SAR Analysis of Antagonists of the DOR Receptor using an Image-Based Assay - Set 3. [Related pubchem assays (depositor defined):AID1777, AID1785]; assay type: functional;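 note: U2OS cells expressing DOR1 and beta-arrestin GFP stimulated with 100 nM SNC80; imaging of GFP-tagged beta-arrestin moving into spots after receptor activation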
[8] = target: T5, Kappa-type opioid receptor (Homo sapiens, UniProt P41145); assay: SAR analysis of small molecule antagonists of the kappa opioid receptor via a luminescent beta-arrestin assay - Set 3. [Related pubchem assays (depositor defined):AID1777, AID1778, AID1785, AID1786, AID1966, AID2133, AID2136, AID2285, AID2495]; assay type: functional
[9] = target: T5, Kappa-type opioid receptor; assay: SAR analysis of Antagonists of the Kappa Opioid Receptor (KOR) using an Image-Based Assay - Set 3. [Related pubchem assays (depositor defined):AID1777, AID1785]; assay type: functional
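Throughout, for CC50: cells exposed to compound for 72 hours before luminescence readout.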

T5 sequence (P41145 whole entry): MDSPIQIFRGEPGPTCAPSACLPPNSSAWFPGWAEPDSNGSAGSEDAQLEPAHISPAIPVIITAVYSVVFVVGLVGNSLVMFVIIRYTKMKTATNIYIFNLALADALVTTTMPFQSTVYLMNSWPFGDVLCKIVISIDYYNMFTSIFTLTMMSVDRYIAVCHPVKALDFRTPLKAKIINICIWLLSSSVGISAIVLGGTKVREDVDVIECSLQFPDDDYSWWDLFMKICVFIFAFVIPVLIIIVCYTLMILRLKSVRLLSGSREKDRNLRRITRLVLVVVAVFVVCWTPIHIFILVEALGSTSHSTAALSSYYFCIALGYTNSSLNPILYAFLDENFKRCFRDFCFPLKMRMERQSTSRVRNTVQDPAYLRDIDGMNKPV
Chain of Cytochrome P450 2D6 (P10635 whole entry): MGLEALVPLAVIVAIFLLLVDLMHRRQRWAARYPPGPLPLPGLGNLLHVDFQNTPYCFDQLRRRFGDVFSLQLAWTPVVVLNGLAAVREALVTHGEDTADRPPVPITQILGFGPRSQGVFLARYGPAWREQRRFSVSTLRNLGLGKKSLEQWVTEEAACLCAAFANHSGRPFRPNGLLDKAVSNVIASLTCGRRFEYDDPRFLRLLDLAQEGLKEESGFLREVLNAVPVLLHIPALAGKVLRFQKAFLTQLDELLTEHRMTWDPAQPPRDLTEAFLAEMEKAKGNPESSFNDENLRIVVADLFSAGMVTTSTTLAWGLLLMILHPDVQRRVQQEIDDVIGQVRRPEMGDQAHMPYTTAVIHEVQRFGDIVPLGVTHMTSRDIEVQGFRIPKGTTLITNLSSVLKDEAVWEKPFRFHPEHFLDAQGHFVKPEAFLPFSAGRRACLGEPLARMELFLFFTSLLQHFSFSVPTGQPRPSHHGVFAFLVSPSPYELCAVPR
Chain of Mu-type opioid receptor (P35372 whole entry): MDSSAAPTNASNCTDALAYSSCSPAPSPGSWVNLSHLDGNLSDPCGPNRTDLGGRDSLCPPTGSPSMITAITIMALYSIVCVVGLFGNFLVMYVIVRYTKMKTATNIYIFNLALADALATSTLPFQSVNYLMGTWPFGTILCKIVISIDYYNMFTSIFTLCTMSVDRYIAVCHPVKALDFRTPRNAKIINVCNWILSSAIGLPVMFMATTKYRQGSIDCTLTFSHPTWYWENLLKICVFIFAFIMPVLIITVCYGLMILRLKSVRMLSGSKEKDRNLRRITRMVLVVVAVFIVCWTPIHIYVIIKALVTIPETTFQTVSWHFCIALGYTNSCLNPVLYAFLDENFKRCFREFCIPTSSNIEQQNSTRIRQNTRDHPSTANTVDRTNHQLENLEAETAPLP
Chain of Delta-type opioid receptor (P41143 whole entry): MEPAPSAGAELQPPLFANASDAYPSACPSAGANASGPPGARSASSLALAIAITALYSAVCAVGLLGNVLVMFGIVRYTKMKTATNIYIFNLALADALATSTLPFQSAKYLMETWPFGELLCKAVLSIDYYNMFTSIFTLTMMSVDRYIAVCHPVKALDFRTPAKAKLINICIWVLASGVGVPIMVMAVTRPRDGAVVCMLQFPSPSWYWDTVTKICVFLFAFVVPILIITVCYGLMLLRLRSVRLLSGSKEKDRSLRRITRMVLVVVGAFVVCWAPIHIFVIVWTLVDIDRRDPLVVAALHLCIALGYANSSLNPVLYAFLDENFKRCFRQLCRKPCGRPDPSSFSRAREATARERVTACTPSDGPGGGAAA

COc1cc(OC)cc(C(=O)NC(=S)NNC(=O)c2cnccn2)c1
EC50 [1]: > 120 µM (not active) | EC50 [2]: 11.5 µM (active) | EC50 [3]: 10.2 µM (active) | EC50 (Hexokinase HKDC1): 11.5 µM (active) | EC50 (Hexokinase-1): > 80 µM (inactive)

CC(C)CCn1c(N)c(C(=O)NCc2cccs2)c2nc3ccccc3nc21
AC50 [4]: 3.46 µM (active) | CC50 [5]: > 40 µM (active) | AC50 [6]: 4.01 µM (active) | EC50 (Protein RecA): 3.04 µM (active) | AC50 (Cytochrome P450 2D6): 8.91 µM (inconclusive)

CCc1ccc(S(=O)(=O)NCc2ccc(C(=O)NCCN(Cc3ccccc3)C(C)CC)cc2)cc1 (centres undefined)
IC50 (Mu-type opioid receptor): > 32 µM (inactive) | IC50 [7]: > 32 µM (inactive) | IC50 [8]: 1.42 µM (active) | IC50 [9]: 0.47 µM (active)

— ChEMBL document CHEMBL1201862, “PubChem BioAssay data set” (2004)
